Source: US11607423B2, “Combination of a cannabinoid and a chemotheraopeutic agent for the treatment of breast cancer” (Akos Biosciences, Inc., priority 2018, dated 2023)

Legend:
pERK = pERK level by western blotting in MCF7 cells, relative to GAPDH loading control; assay type: cell-based; details: CBD 100 nM, 1 μM or 10 μM, 48 h, band density relative to GAPDH, 5 separate experiments, FIG. 2
Protocol: The breast cancer cell line MCF7, growing exponentially, was reset at a concentration of 1×10^4/ml and allowed to adhere overnight. Cannabidiol (CBD) was added at 100 nM, 1 μM, or 10 μM, and cells were harvested for standard western blotting techniques after 48 h. Immunoprobing was performed using anti-pERK antibodies, and the densities of each band determined. These values were then expressed relative to a GAPDH loading control.

[1] = system: breast cancer cell line MCF7; test: MCF7 cell viability by cell counting with trypan blue after 48 h; assay type: cell-based; details: CBD 0.1, 1 or 10 μM, FIG. 1
From the text: The breast cancer cell line MCF7, growing exponentially, was reset at a concentration of 1×10^4/ml and allowed to adhere overnight.

C=C(C)[C@@H]1CCC(C)=C[C@H]1c1c(O)cc(CCCCC)cc1O [CBD, cannabidiol]
pERK relative to controls (pERK): increased | viability of cancer cells [1]: unaffected
